Results published in ChEMBL document CHEMBL6071139, “Recent discovery of natural substances with cathepsin L-inhibitory activity for cancer metastasis suppression” (Eur J Med Chem, 2024).
pIC50, pKi: −log10 of the molar value.

Key:
Procathepsin L [1] = target: T1, Procathepsin L (Homo sapiens, UniProt P07711); experiment: Inhibition of CTSL (unknown origin) using Z-Phe-Arg-AMC as substrate by fluorometric assay
Procathepsin L [2] = target: T1, Procathepsin L; experiment: Inhibition of CTSL (unknown origin) using Z-Phe-Arg-AMC as substrate preincubated for 30 mins followed by substrate addition measured after 6 mins by fluorescence based assay
Procathepsin L [3] = target: T1, Procathepsin L; experiment: Inhibition of CTSL (unknown origin)
[4] = Lipophilicity, logP of compound; settings: octanol/water

T1 sequence (P07711 whole entry): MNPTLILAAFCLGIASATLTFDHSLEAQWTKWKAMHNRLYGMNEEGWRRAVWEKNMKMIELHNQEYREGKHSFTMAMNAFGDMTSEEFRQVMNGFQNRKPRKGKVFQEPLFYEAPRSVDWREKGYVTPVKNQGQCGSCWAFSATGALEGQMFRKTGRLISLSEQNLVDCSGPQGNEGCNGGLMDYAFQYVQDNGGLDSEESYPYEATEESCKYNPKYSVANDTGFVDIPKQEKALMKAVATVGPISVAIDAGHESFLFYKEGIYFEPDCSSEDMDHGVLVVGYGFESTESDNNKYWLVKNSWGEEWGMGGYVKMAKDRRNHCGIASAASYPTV

| pKi (Procathepsin L [3]) | pIC50 (Procathepsin L [3]) | SMILES | also measured |
| --- | --- | --- | --- |
| – | – | O=C(O)/C=C/c1ccc(O)cc1O | pIC50 (Procathepsin L [1]): 3.03 |
| – | – | Cc1ccc(S(=O)(=O)N[C@@H](Cc2ccccc2)C(=O)OC[C@H](Cc2ccccc2)NC(=O)c2ccccc2)cc1 | pIC50 (Procathepsin L [2]): 4.52 |
| 7.92 | – | CCOC(=O)/C=C/C(=O)[C@H](CC(C)C)NC(=O)[C@H](Cc1ccccc1)NC(=O)OCc1ccccc1 | – |
| – | 5.24 | O=C(N[C@H](COC(=O)[C@H](Cc1ccccc1)NS(=O)(=O)c1cccc(Br)c1)Cc1ccccc1)c1ccccc1 | – |
| 8.07 | – | Cc1ccc(S(=O)(=O)/C=C/C(=O)[C@H](CC(C)C)NC(=O)[C@H](CC(C)C)NC(=O)OCc2ccccc2)cc1 | – |
| 8.96 | – | C[C@@H](/C=C/[N+](=O)[O-])NC(=O)[C@H](Cc1c[nH]c2ccccc12)NC(=O)OCc1ccccc1 | logP [4]: 1.61 |
| – | 5.22 | O=C(N[C@@H](Cc1ccccc1)C(=O)OC[C@H](Cc1ccccc1)NS(=O)(=O)c1ccc(Br)cc1)c1ccccc1 | – |
| 8.41 | – | C[C@@H](/C=C/[N+](=O)[O-])NC(=O)[C@H](Cc1ccc([N+](=O)[O-])cc1)NC(=O)OCc1ccccc1 | logP [4]: 1.85 |
| – | 4.04 | O=C(N[C@H](COC(=O)[C@H](Cc1ccccc1)NC(=O)c1ccccc1)Cc1ccccc1)c1ccccc1 [ASPERPHENAMATE] | – |
